Data as given in article PMC5516944 (Structure (London, England : 1993), 2017).

T1: hATL1 (Homo sapiens, UniProt Q8WXF7)
T1 sequence (Q8WXF7 1-446): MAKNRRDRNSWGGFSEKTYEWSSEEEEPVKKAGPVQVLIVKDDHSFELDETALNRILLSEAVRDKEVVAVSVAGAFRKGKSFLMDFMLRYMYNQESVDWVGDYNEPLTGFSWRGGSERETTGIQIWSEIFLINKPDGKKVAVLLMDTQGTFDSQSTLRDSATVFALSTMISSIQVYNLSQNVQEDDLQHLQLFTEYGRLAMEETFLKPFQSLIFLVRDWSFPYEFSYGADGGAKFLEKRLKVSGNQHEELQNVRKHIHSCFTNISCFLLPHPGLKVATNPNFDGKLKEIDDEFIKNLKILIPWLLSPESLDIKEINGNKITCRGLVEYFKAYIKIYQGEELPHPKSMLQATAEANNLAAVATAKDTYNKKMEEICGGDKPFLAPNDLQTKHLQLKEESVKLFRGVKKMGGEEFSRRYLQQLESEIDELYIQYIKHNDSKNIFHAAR

T2: hATL3 (Homo sapiens, UniProt Q6DD88)
T2 sequence (Q6DD88 1-442): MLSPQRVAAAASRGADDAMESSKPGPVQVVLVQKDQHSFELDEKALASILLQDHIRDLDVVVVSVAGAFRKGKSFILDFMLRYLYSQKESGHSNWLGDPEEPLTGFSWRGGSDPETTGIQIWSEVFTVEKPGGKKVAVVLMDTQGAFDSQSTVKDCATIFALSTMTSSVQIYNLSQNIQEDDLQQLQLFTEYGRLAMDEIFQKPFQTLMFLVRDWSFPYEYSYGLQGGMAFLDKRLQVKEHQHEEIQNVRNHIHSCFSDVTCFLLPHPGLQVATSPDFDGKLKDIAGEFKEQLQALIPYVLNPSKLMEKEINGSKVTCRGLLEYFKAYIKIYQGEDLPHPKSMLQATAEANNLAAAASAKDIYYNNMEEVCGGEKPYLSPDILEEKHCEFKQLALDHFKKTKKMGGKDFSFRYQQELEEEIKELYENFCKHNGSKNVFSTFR

B1: human atlastin 1 (hATL1) catalytic core fragment, G and middle domains (1–446) (domain or fragment, UniProt Q8WXF7 1-446, looked up)
chain: T1 sequence (Q8WXF7 1-446)
B2: human atlastin 3 (hATL3) catalytic core fragment, G and middle domains (1–442) (domain or fragment, UniProt Q6DD88 1-442, looked up)
chain: T2 sequence (Q6DD88 1-442)

How the values were obtained:
hATL1 = target: T1, hATL1; test: SEC-MALS, nucleotide-induced dimerisation; type: binding; details: 1 mM nucleotide; 40 μM protein; pH 7.5; 4 mM MgCl2
hATL3 = target: T2, hATL3; test: SEC-MALS, nucleotide-induced dimerisation; type: binding; details: 1 mM nucleotide; 40 μM protein; pH 7.5; 4 mM MgCl2
SEC-MALS = target: the molecule itself; test: SEC-MALS

Row | Molecule | SEC-MALS, nucleotide-induced dimerisation (hATL1) | SEC-MALS, nucleotide-induced dimerisation (hATL3) | stoichiometry N (SEC-MALS)
1 | Nc1nc2c(ncn2[C@@H]2O[C@H](COP(=O)(O)OP(=O)(O)NP(=O)(O)O)[C@@H](O)[C@H]2O)c(=O)[nH]1 [GppNHp] | dimeric ATLs are found when bound to GppNHp and GDP•AlFx | dimeric ATLs are found when bound to GppNHp and GDP•AlFx | –
2 | B1 | – | – | 2
3 | B2 | – | – | 2
